# Source: PMC4839570, “Novel Anthra[1,2-c][1,2,5]Thiadiazole-6,11-Diones as Promising Anticancer Lead Compounds: Biological Evaluation, Characterization & Molecular Targets Determination” (PLoS ONE, 2016)
# Like-named read-outs stand apart in the source and are kept apart here.
# Legend:
# MKN45 = assay: JFCR-39 cytotoxicity screen; type: cell-based
# BSY-1 = assay: JFCR-39 cytotoxicity screen; type: cell-based
# SK-OV-3 = assay: JFCR-39 cytotoxicity screen; type: cell-based
# OVCAR-8 = assay: JFCR-39 cytotoxicity screen; type: cell-based
# HBC-4 = assay: JFCR-39 cytotoxicity screen; type: cell-based
# OVCAR-3 = conditions: JFCR
# A498 = assay: NCI-60 cytotoxicity screen; type: cell-based
# NCI-H322M = assay: NCI-60 cytotoxicity screen; type: cell-based
# NCI-H460 = assay: NCI-60 cytotoxicity screen; type: cell-based
# RXF-631L = assay: JFCR-39 cytotoxicity screen; type: cell-based
# SNB-19 = assay: NCI-60 cytotoxicity screen; type: cell-based
# HS 578T = assay: NCI-60 cytotoxicity screen; type: cell-based
# HOP-62 = assay: NCI-60 cytotoxicity screen; type: cell-based
# UO-31 = assay: NCI-60 cytotoxicity screen; type: cell-based
# RPMI-8226 = assay: NCI-60 cytotoxicity screen; type: cell-based
# DMS273 = assay: JFCR-39 cytotoxicity screen; type: cell-based
# HCC2998 = assay: JFCR-39 cytotoxicity screen; type: cell-based
# HOP-92 = assay: NCI-60 cytotoxicity screen; type: cell-based
# HCT-15 = assay: NCI-60 cytotoxicity screen; type: cell-based
# HT29 = assay: NCI-60 cytotoxicity screen; type: cell-based
# UACC-257 = assay: NCI-60 cytotoxicity screen; type: cell-based
# [1] = test system: JFCR 39 human cancer cell lines; assay: JFCR-39 screen, means, ranges and selectivity over panels; type: cell-based; conditions: for GI50: Homo sapiens
# Protocol: Both NSC745885 and NSC757963 satisfied the pre-determined threshold inhibition criteria of the NCI-60 One-Dose Screening, so they were tested against the panels of 60 cancer cell lines of NCI (NCI-60) and 39 cancer cell lines of JFCR (JFCR-39), each cell line was tested at five small doses of our compounds. Results are expressed as the 50% growth inhibition concentration (GI50), the 50% lethal concentration (LC50) and the total growth inhibition (TGI), compared to the values of untreated control cells.
# To characterize the selectivity of NSC745885 and NSC757963 further among the different types of cancer, we determined their selectivity ratios towards each cell line subpanel used in the cytotoxicity experiments. […] The promising activity of this compound is evident from the small mean GI50 values. […] The strongest activity was towards the leukemia subpanel and the least one was towards the colon cancer subpanel. […] The strongest activity was towards the melanoma subpanel and the least one was towards the colon cancer subpanel.
# All cell lines were published before.
# BT-549 = assay: NCI-60 cytotoxicity screen; type: cell-based
# HT-29 = assay: JFCR-39 cytotoxicity screen; type: cell-based
# [2] = Homo sapiens, read-out: LC50 (the source's name)
# [3] = Homo sapiens, Fig 7, read-out: mean log10 of the GI50 values (converted)
# [4] = Homo sapiens, five-dose, read-out: GI50
# [5] = Homo sapiens, five-dose, read-out: LC50 (the source's name)
smiles,measurement,setting,value
"O=C1c2ccccc2C(=O)c2c1ccc1nsnc21 [NSC745885, anthra[1,2-c][1,2,5]thiadiazole-6,11-dione]",TGI,MKN45,9.8 µM
same,GI50,"MKN45; Homo sapiens, MKN-45",3.1 µM
same,CC50,"MKN45; Homo sapiens, MKN-45, read-out: LC50 (the source's name)",39 µM
same,TGI,BSY-1,2.8 µM
same,GI50,BSY-1; Homo sapiens,1.4 µM
same,CC50,BSY-1; [2],5.6 µM
same,TGI,SK-OV-3,8.3 µM
same,GI50,SK-OV-3; Homo sapiens,2.7 µM
same,CC50,SK-OV-3; [2],29 µM
same,TGI,OVCAR-8,4.0 µM
same,GI50,OVCAR-8; Homo sapiens,1.4 µM
same,CC50,OVCAR-8; [2],18 µM
same,TGI,HBC-4,3.0 µM
same,GI50,"HBC-4; Homo sapiens, HBC4",1.7 µM
same,CC50,"HBC-4; Homo sapiens, HBC4, read-out: LC50 (the source's name)",5.5 µM
same,TGI,OVCAR-3,2.0 µM
same,GI50,A498; [3],35.5 µM
same,GI50,A498; [4],12.4 µM
same,CC50,A498; [5],52 µM
same,TGI,A498; five-dose,25.4 µM
same,GI50,NCI-H322M; [3],36.3 µM
same,GI50,NCI-H322M; [4],17.4 µM
same,CC50,NCI-H322M; [5],> 100 µM
same,TGI,NCI-H322M; five-dose,47.8 µM
same,GI50,"NCI-H460; Homo sapiens, NCI-460, five-dose, read-out: GI50",3.27 µM
same,CC50,"NCI-H460; Homo sapiens, NCI-460, five-dose, read-out: LC50 (the source's name)",47.3 µM
same,GI50,"NCI-H460; Homo sapiens, NCI-H460, Fig 7, read-out: mean log10 of the GI50 values (converted)",2.45 µM
same,TGI,"NCI-H460; NCI-460, five-dose",14.3 µM
same,TGI,RXF-631L,4.9 µM
same,GI50,RXF-631L; Homo sapiens,2.3 µM
same,CC50,RXF-631L; [2],12 µM
same,GI50,SNB-19; [3],2.04 µM
same,GI50,SNB-19; [4],2.28 µM
same,CC50,SNB-19; [5],26 µM
same,TGI,SNB-19; five-dose,5.82 µM
same,TGI,"HS 578T; HS 578T, five-dose",5.02 µM
same,GI50,"HS 578T; Homo sapiens, Hs-578T, HS578T, Fig 7, read-out: mean log10 of the GI50 values (converted)",2.63 µM
same,GI50,"HS 578T; Homo sapiens, HS 578T, five-dose, read-out: GI50",1.41 µM
same,CC50,"HS 578T; Homo sapiens, HS 578T, five-dose, read-out: LC50 (the source's name)",56 µM
same,GI50,HOP-62; [3],2.14 µM
same,GI50,HOP-62; [4],1.28 µM
same,CC50,HOP-62; [5],8.53 µM
same,inhibition at 10 µM,"HOP-62; Homo sapiens, single dose 10 μM, read-out: growth inhibition",100%
same,TGI,HOP-62; five-dose,3.31 µM
same,GI50,UO-31; [3],1.78 µM
same,GI50,UO-31; [4],1.62 µM
same,CC50,UO-31; [5],6.01 µM
same,TGI,UO-31; five-dose,3.12 µM
same,GI50,RPMI-8226; [3],1.35 µM
same,GI50,RPMI-8226; [4],1.18 µM
same,CC50,RPMI-8226; [5],> 100 µM
same,TGI,RPMI-8226; five-dose,3.46 µM
same,TGI,DMS273,3.8 µM
same,GI50,"DMS273; Homo sapiens, DMS-273",2 µM
same,CC50,"DMS273; Homo sapiens, DMS-273, read-out: LC50 (the source's name)",7 µM
same,TGI,HCC2998,3.9 µM
same,GI50,"HCC2998; Homo sapiens, HCC 2998",2.1 µM
same,CC50,"HCC2998; Homo sapiens, HCC 2998, read-out: LC50 (the source's name)",7.5 µM
same,GI50,HOP-92; [3],2.69 µM
same,GI50,HOP-92; [4],2.52 µM
same,CC50,HOP-92; [5],> 100 µM
same,TGI,HOP-92; five-dose,6.64 µM
same,GI50,HCT-15; [3],2.04 µM
same,GI50,HCT-15; [4],1.71 µM
same,CC50,HCT-15; [5],8.12 µM
same,TGI,HCT-15; five-dose,3.72 µM
same,GI50,"HT29; Homo sapiens, HT-29, Fig 7, read-out: mean log10 of the GI50 values (converted)",6.03 µM
same,GI50,"HT29; Homo sapiens, HT-29, five-dose, read-out: GI50",13.4 µM
same,CC50,"HT29; Homo sapiens, HT-29, five-dose, read-out: LC50 (the source's name)",> 100 µM
same,TGI,HT29; five-dose,50.4 µM
same,GI50,UACC-257; [3],1.62 µM
same,GI50,UACC-257; [4],1.74 µM
same,CC50,UACC-257; [5],7.09 µM
same,TGI,UACC-257; five-dose,3.51 µM
same,selectivity ratios of the JFCR subpanels (for NSC745885 except melanoma),[1],less than 3
same,GI50,"[1]; JFCR Breast Cancer, read-out: Mean GI50 of subpanel",1.66 µM
same,GI50,"[1]; JFCR CNS Cancer, read-out: Mean GI50 of subpanel",1.87 µM
same,GI50,"[1]; JFCR Colon Cancer, read-out: Mean GI50 of subpanel",5.36 µM
same,GI50,"[1]; JFCR Lung Cancer, read-out: Mean GI50 of subpanel",4.13 µM
same,GI50,"[1]; JFCR Melanoma, read-out: Mean GI50 of subpanel",0.86 µM
same,GI50,"[1]; JFCR Ovarian Cancer, read-out: Mean GI50 of subpanel",1.63 µM
same,GI50,"[1]; JFCR Prostate Cancer, read-out: Mean GI50 of subpanel",1.65 µM
same,GI50,"[1]; JFCR Renal Cancer, read-out: Mean GI50 of subpanel",2.1 µM
same,GI50,"[1]; JFCR Stomach Cancer, read-out: Mean GI50 of subpanel",1.71 µM
same,GI50,"[1]; all JFCR subpanels, read-out: mean GI50 values of the JFCR subpanels, range",0.86 to 5.36 µM
same,GI50,"[1]; equivalent to MG-MID, read-out: Mean GI50 of all JFCR-39 cell line panels",2.62 µM
same,GI50,"[1]; five-dose, read-out: JFCR-39 GI50 values, range over cell lines",0.47 to 19 µM
same,Selectivity ratio,[1]; JFCR Breast Cancer,1.58
same,Selectivity ratio,[1]; JFCR CNS Cancer,1.4
same,Selectivity ratio,[1]; JFCR Colon Cancer,0.49
same,Selectivity ratio,[1]; JFCR Lung Cancer,0.63
same,Selectivity ratio,[1]; JFCR Melanoma,3.04
same,Selectivity ratio,[1]; JFCR Ovarian Cancer,1.6
same,Selectivity ratio,[1]; JFCR Prostate Cancer,1.59
same,Selectivity ratio,[1]; JFCR Renal Cancer,1.25
same,Selectivity ratio,[1]; JFCR Stomach Cancer,1.53
same,GI50,BT-549; [3],4.57 µM
same,GI50,BT-549; [4],1.63 µM
same,CC50,BT-549; [5],6.01 µM
same,TGI,BT-549; five-dose,3.13 µM
same,TGI,HT-29,39.0 µM
same,GI50,HT-29; Homo sapiens,19 µM
same,CC50,HT-29; [2],81 µM
